Reference: US11780839B2, “Compounds for treating Huntington's disease” (PTC THERAPEUTICS, INC., priority 2018, dated 2023)

Test system: Endogenous Huntingtin Protein
Experiment: Endogenous Huntingtin Protein Assay (ELISA-based Meso Scale Discovery electrochemiluminescence)
Assay type: cell-based
Conditions: MSD electrochemiluminescence, Table 1
Summary of the method: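 Huntingtin was captured overnight at 4 °C on plates coated with 1 μg/mL MW1 (polyQ-expanded) or MAB2166 antibody and BSA-blocked. Detection used a rabbit monoclonal and then a SULFO-TAG goat anti-rabbit antibody (0.25 μg/mL, 1 h each, room temperature). Signal was read by electrochemiluminescence.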

Row | Compound | IC50 [nM]
1 | Cn1ncc2cc(-c3ccc(-c4cnc(N[C@H]5CC(C)(C)NC(C)(C)[C@H]5F)nn4)c(O)c3)cnc21 [Cpd 284] | ≤ 100
2 | NC1CN(c2ncc(-c3ccc(-c4cn[nH]c4)cc3O)nn2)CC12COC2 (stereo not drawn) [Cpd 334, 2-[3-(8-amino-2-oxa-6-azaspiro[3.4]octan-6-yl)-1,2,4-triazin-6-yl]-5-(1H-pyrazol-4-yl)phenol] | 1000 to 3000
3 | Oc1cc(-c2cn[nH]c2)ccc1-c1cnc(N2CC3CCNC3C2)nn1 (stereo not drawn) [Cpd 370, 2-[3-(hexahydropyrrolo[3,4-b]pyrrol-5(1H)-yl)-1,2,4-triazin-6-yl]-5-(1H-pyrazol-4-yl)phenol] | ≤ 100
4 | CN(c1ncc(-c2ccc(-c3cc(C#N)c4nccn4n3)cc2O)nn1)C1CC(C)(C)NC(C)(C)C1 [Cpd 344, 6-(3-hydroxy-4-{3-[methyl(2,2,6,6-tetramethylpiperidin-4-yl)amino]-1,2,4-triazin-6-yl}phenyl)imidazo[1,2-b]pyridazine-8-carbonitrile] | ≤ 100
5 | CN(c1ncc(-c2ccc(-n3cnc(C#N)c3)cc2O)nn1)C1CC(C)(C)NC(C)(C)C1 [Cpd 139, 1-(3-hydroxy-4-{3-[methyl(2,2,6,6-tetramethylpiperidin-4-yl)amino]-1,2,4-triazin-6-yl}phenyl)-1H-imidazole-4-carbonitrile] | 100 to 500
6 | CN(c1cnc(-c2ccc(-c3cnccn3)cc2O)nn1)C1CC(C)(C)NC(C)(C)C1 [Cpd 412, 2-{6-[methyl(2,2,6,6-tetramethylpiperidin-4-yl)amino]-1,2,4-triazin-3-yl}-5-(pyrazin-2-yl)phenol] | ≤ 100
7 | CC1(C)CC(Nc2ncc(-c3ccc(-n4cc(F)cn4)cc3O)nn2)CC(C)(C)N1 [Cpd 276, 5-(4-fluoro-1H-pyrazol-1-yl)-2-{3-[(2,2,6,6-tetramethylpiperidin-4-yl)amino]-1,2,4-triazin-6-yl}phenol] | ≤ 100
8 | CN(c1ncc(-c2ccc(-c3cnn(C4CC4)c3)cc2O)nn1)C1CC(C)(C)NC(C)(C)C1 [Cpd 101, 5-(1-cyclopropyl-1H-pyrazol-4-yl)-2-{3-[methyl(2,2,6,6-tetramethylpiperidin-4-yl)amino]-1,2,4-triazin-6-yl}phenol] | 100 to 500
9 | CC1(C)CC(Nc2ncc(-c3ccc(-n4nccn4)cc3O)nn2)CC(C)(C)N1 [Cpd 121, 2-{3-[(2,2,6,6-tetramethylpiperidin-4-yl)amino]-1,2,4-triazin-6-yl}-5-(2H-1,2,3-triazol-2-yl)phenol] | ≤ 100
10 | CN(c1ncc(-c2ccc(-c3cc[nH]n3)cc2O)nn1)C1CC(C)(C)NC(C)(C)C1 [Cpd 111, 2-{3-[methyl(2,2,6,6-tetramethylpiperidin-4-yl)amino]-1,2,4-triazin-6-yl}-5-(1H-pyrazol-3-yl)phenol] | ≤ 100
11 | Cc1csc(-c2ccc(-c3cnc(N(C)C4CC(C)(C)NC(C)(C)C4)nn3)c(O)c2)c1 [Cpd 54, 2-{3-[methyl(2,2,6,6-tetramethylpiperidin-4-yl)amino]-1,2,4-triazin-6-yl}-5-(4-methylthiophen-2-yl)phenol] | > 500
12 | COc1cnn(-c2ccc(-c3cnc(N(C)C4CC(C)(C)NC(C)(C)C4)nn3)c(O)c2)c1 [Cpd 55, 5-(4-methoxy-1H-pyrazol-1-yl)-2-{3-[methyl(2,2,6,6-tetramethylpiperidin-4-yl)amino]-1,2,4-triazin-6-yl}phenol] | ≤ 100
13 | CC1(C)CC(Oc2ncc(-c3ccc(-c4cc[nH]n4)cc3O)nn2)CC(C)(C)N1 [Cpd 107, 5-(1H-pyrazol-3-yl)-2-{3-[(2,2,6,6-tetramethylpiperidin-4-yl)oxy]-1,2,4-triazin-6-yl}phenol] | 1000 to 3000
14 | CN(c1ncc(-c2ccc(-c3ccnn3C)cc2O)nn1)C1CC(C)(C)NC(C)(C)C1 [Cpd 124, 5-(1-methyl-1H-pyrazol-5-yl)-2-{3-[methyl(2,2,6,6-tetramethylpiperidin-4-yl)amino]-1,2,4-triazin-6-yl}phenol] | 100 to 500
15 | CN(c1ncc(-c2ccc(-c3cn4ccnc4cn3)cc2O)nn1)C1CC(C)(C)NC(C)(C)C1 [Cpd 80, 5-(imidazo[1,2-a]pyrazin-6-yl)-2-{3-[methyl(2,2,6,6-tetramethylpiperidin-4-yl)amino]-1,2,4-triazin-6-yl}phenol] | ≤ 100
16 | Cn1cc(-c2ccc(-c3cnc(N[C@H]4CC(C)(C)NC(C)(C)[C@H]4F)nn3)c(O)c2)cn1 [Cpd 201, 2-(3-{[(3S,4S)-3-fluoro-2,2,6,6-tetramethylpiperidin-4-yl]amino}-1,2,4-triazin-6-yl)-5-(1-methyl-1H-pyrazol-4-yl)phenol] | ≤ 100
17 | Cn1ncc2cc(-c3ccc(-c4cnc(N[C@H]5CC(C)(C)NC(C)(C)[C@H]5F)nn4)c(O)c3)ccc21 [Cpd 260, 2-(3-{[(3S,4S)-3-fluoro-2,2,6,6-tetramethylpiperidin-4-yl]amino}-1,2,4-triazin-6-yl)-5-(1-methyl-1H-indazol-5-yl)phenol] | ≤ 100
18 | CN(c1ncc(-c2ccc(-c3cc4cnn(C)c4cn3)cc2O)nn1)C1CC(C)(C)NC(C)(C)C1 [Cpd 222, 5-(1-methyl-1H-pyrazolo[3,4-c]pyridin-5-yl)-2-{3-[methyl(2,2,6,6-tetramethylpiperidin-4-yl)amino]-1,2,4-triazin-6-yl}phenol] | ≤ 100
19 | CN(c1ncc(-c2ccc(-c3nccs3)cc2O)nn1)C1CC(C)(C)NC(C)(C)C1 [Cpd 58, 2-{3-[methyl(2,2,6,6-tetramethylpiperidin-4-yl)amino]-1,2,4-triazin-6-yl}-5-(1,3-thiazol-2-yl)phenol] | ≤ 100
20 | CN(c1ncc(-c2ccc(-n3cnc(F)c3)cc2O)nn1)C1CC(C)(C)NC(C)(C)C1 [Cpd 50, 5-(4-fluoro-1H-imidazol-1-yl)-2-{3-[methyl(2,2,6,6-tetramethylpiperidin-4-yl)amino]-1,2,4-triazin-6-yl}phenol] | ≤ 100

Now from value to molecule:

Row | IC50 [nM] | Compound
21 | ≤ 100 | Oc1cc(-c2cn[nH]c2)ccc1-c1cnc(N2CCC(NC3CCCC3)C2)nn1 (stereo not drawn) [Cpd 357, 2-{3-[3-(cyclopentylamino)pyrrolidin-l-yl]-1,2,4-triazin-6-yl}-5-(1H-pyrazol-4-yl)phenol]
22 | ≤ 100 | Oc1cc(-c2cn[nH]c2)ccc1-c1cnc(N2CCC(CNCc3ccccn3)C2)nn1 (stereo not drawn) [Cpd 388, 5-(1H-pyrazol-4-yl)-2-{3-[-({[(pyridin-2-yl)methyl]amino}methyl)pyrrolidin-1-yl]-1,2,4-triazin-6-yl}phenol]
23 | > 500 | CNC1CCN(c2ncc(-c3ccc(-n4ccnc4)cc3O)nn2)C1 (stereo not drawn) [Cpd 220, 5-(1H-imidazol-1-yl)-2-{3-[3-(methylamino)pyrrolidin-1-yl]-1,2,4-triazin-6-yl}phenol]
24 | ≤ 100 | CC1(NC2CCN(c3ncc(-c4ccc(-c5cn[nH]c5)cc4O)nn3)C2)CC1 (stereo not drawn) [Cpd 340, 2-(3-{3-[(1-methylcyclopropyl)amino]pyrrolidin-1-yl}-1,2,4-triazin-6-yl)-5-(1H-pyrazol-4-yl)phenol]
25 | ≤ 100 | Oc1cc(-c2c[nH]nc2F)ccc1-c1cnc(N2CC[C@H]3NCC[C@H]3C2)nn1 [Cpd 150, 5-(3-fluoro-1H-pyrazol-4-yl)-2-{3-[(3aS,7aR)-octahydro-5H-pyrrolo[3,2-c]pyridin-5-yl]-1,2,4-triazin-6-yl}phenol]
26 | 1000 to 3000 | CNC1CCN(c2ncc(-c3ccc(-c4ncccn4)cc3O)nn2)C1 (stereo not drawn) [Cpd 270, 2-{3-[3-(methylamino)pyrrolidin-1-yl]-1,2,4-triazin-6-yl}-5-(pyrimidin-2-yl)phenol]
27 | 100 to 500 | CN(C)C1CCN(c2ncc(-c3ccc(-c4cn[nH]c4)cc3O)nn2)C1 (stereo not drawn) [Cpd 318, 2-{3-[3-(dimethylamino)pyrrolidin-1-yl]-1,2,4-triazin-6-yl}-5-(1H-pyrazol-4-yl)phenol]
28 | ≤ 100 | Cn1ccc(-c2ccc(-c3cnc(N4CCC(NC(C)(C)C)C4)nn3)c(O)c2)cc1=O (stereo not drawn) [Cpd 214, 4-(4-{3-[3-(tert-butylamino)pyrrolidin-1-yl]-1,2,4-triazin-6-yl}-3-hydroxyphenyl)-1-methylpyridin-2(1H)-one]
29 | ≤ 100 | CCNC1CCN(c2ncc(-c3ccc(-c4cn[nH]c4)cc3O)nn2)C1 (stereo not drawn) [Cpd 317, 2-{3-[3-(ethylamino)pyrrolidin-1-yl]-1,2,4-triazin-6-yl}-5-(1H-pyrazol-4-yl)phenol]
30 | ≤ 100 | CC(C)(C)NC1CCN(c2ncc(-c3ccc(-c4cn[nH]c4)c(F)c3O)nn2)C1 (stereo not drawn) [Cpd 418, 6-{3-[3-(tert-butylamino)pyrrolidin-1-yl]-1,2,4-triazin-6-yl}-2-fluoro-3-(1H-pyrazol-4-yl)phenol]
31 | 1000 to 3000 | Oc1cc(-c2cn[nH]c2)ccc1-c1cnc(N2CCC(NC3C4CC5CC(C4)CC3C5)C2)nn1 (stereo not drawn) [Cpd 159, 2-(3-{3-[(adamantan-2-yl)amino]pyrrolidin-1-yl}-1,2,4-triazin-6-yl)-5-(1H-pyrazol-4-yl)phenol]
32 | ≤ 100 | [2H]C([2H])([2H])n1cc(-c2ccc(-c3cnc(N4CCC(NC(C)(C)C)C4)nn3)c(O)c2)cn1 (stereo not drawn) [Cpd 367, 2-{3-[3-(tert-butylamino)pyrrolidin-l-yl]-1,2,4-triazin-6-yl}-5-[1-(^2H3)methyl-1H-pyrazol-4-yl]phenol]
33 | ≤ 100 | Cn1cc(-c2ccc(-c3cnc(N4CCC(NC(C)(C)C)C4)nn3)c(O)c2)cn1 (stereo not drawn) [Cpd 202, 2-{3-[3-(tert-butylamino)pyrrolidin-l-yl]-1,2,4-triazin-6-yl}-5-(1-methyl-1H-pyrazol-4-yl)phenol]
34 | ≤ 100 | Oc1cc(-c2cn[nH]c2)ccc1-c1cnc(N2CCC(CNC3CCOC3)C2)nn1 (stereo not drawn) [Cpd 395, 2-[3-(3-{[(oxolan-3-yl)amino]methyl}pyrrolidin-1-yl)-1,2,4-triazin-6-yl]-5-(1H-pyrazol-4-yl)phenol]
35 | ≤ 100 | CC(C)(CF)NC1CCN(c2ncc(-c3ccc(-c4cn[nH]c4)cc3O)nn2)C1 (stereo not drawn) [Cpd 316, 2-(3-{3-[(1-fluoro-2-methylpropan-2-yl)amino]pyrrolidin-1-yl}-1,2,4-triazin-6-yl)-5-(1H-pyrazol-4-yl)phenol]
36 | ≤ 100 | CC(C)NC(C)C1CCN(c2ncc(-c3ccc(-c4cn[nH]c4)cc3O)nn2)C1 (stereo not drawn) [Cpd 414, 2-[3-(3-{1-[(propan-2-yl)amino]ethyl}pyrrolidin-1-yl)-1,2,4-triazin-6-yl]-5-(1H-pyrazol-4-yl)phenol]
